According to PubChem BioAssay (NCI):
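Cells were grown in 96-well plates and exposed to each compound for 48 hours at five concentrations; endpoints were interpolated linearly between bracketing concentrations, or set to the highest concentration if not reached. Abbreviation: GI50, concentration required for 50% inhibition of growth. TGI: total growth inhibition.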

Columns and labels:
Experiment in all cases: NCI anticancer screen, dose series, 48 h
[1] = tested on: CCRF-CEM leukemia
[2] = tested on: SK-OV-3 ovarian
[3] = tested on: KM12 colon
[4] = tested on: 786-0 renal
[5] = tested on: HCT-15 colon
[6] = tested on: MALME-3M melanoma
[7] = tested on: ACHN renal
[8] = tested on: A549 NSCLC
[9] = tested on: UO-31 renal
[10] = tested on: HL-60(TB) leukemia
[11] = tested on: COLO 205 colon
[12] = tested on: UACC-257 melanoma
[13] = tested on: NCI/ADR-RES ovarian
[14] = tested on: HOP-92 NSCLC
[15] = tested on: HCC-2998 colon
[16] = tested on: RXF 393 renal
[17] = tested on: NCI-H522 lung
[18] = tested on: SR leukemia
[19] = tested on: OVCAR-8 ovarian
[20] = tested on: UACC-62 melanoma
[21] = tested on: SK-MEL-5 melanoma
[22] = tested on: A498 renal
[23] = tested on: NCI-H460 lung
[24] = tested on: T-47D breast
[25] = tested on: SW-620 colon
[26] = tested on: NCI-H226 lung
[27] = tested on: IGROV1 ovarian
[28] = tested on: NCI-H23 lung
[29] = tested on: HCT-116 colon
[30] = tested on: BT-549 breast
[31] = tested on: HS 578T breast
[32] = tested on: LOX IMVI melanoma
[33] = tested on: EKVX NSCLC
[34] = tested on: OVCAR-5 ovarian
[35] = tested on: RPMI-8226 leukemia
[36] = tested on: MOLT-4 leukemia
[37] = tested on: SN12C renal
[38] = tested on: MDA-MB-435
[39] = tested on: TK-10 renal
[40] = tested on: HT29 colon
[41] = tested on: SNB-19 CNS
[42] = tested on: SF-295 CNS
[43] = tested on: CAKI-1 renal
[44] = tested on: DU-145 prostate
[45] = tested on: MCF7 breast
[46] = tested on: MDA-MB-231 breast
[47] = tested on: OVCAR-3 ovarian
[48] = tested on: U251 CNS
[49] = tested on: SK-MEL-2 melanoma
[50] = tested on: HOP-62 NSCLC
[51] = tested on: K-562 leukemia
[52] = tested on: SF-268 CNS
[53] = tested on: M14 melanoma
[54] = tested on: PC-3 prostate
[55] = tested on: SK-MEL-28 melanoma

## C[C@@H]1CC[C@H]2[C@@H](C)C(OC/C=C/COC3O[C@@H]4O[C@@]5(C)CC[C@H]6[C@H](C)CC[C@@H]([C@H]3C)[C@@]46OO5)O[C@@H]3O[C@@]4(C)CC[C@@H]1[C@]32OO4 (stereo partly specified)
[1]
  GI50: < 10 nM
  TGI: > 50600 nM
[2]
  GI50: 19500 nM
  TGI: > 100000 nM
[3]
  GI50: < 10 nM
[4]
  GI50: 16.8 nM
  TGI: 18600 nM
[5]
  GI50: < 10 nM
  TGI: > 33000 nM
[6]
  GI50: 42.8 nM
  TGI: 61500 nM
[7]
  GI50: < 16.9 nM
[8]
  GI50: < 16.1 nM
  TGI: > 68300 nM
[9]
  GI50: 152 nM
  TGI: > 92900 nM
[10]
  GI50: < 10 nM
[11]
  GI50: < 10 nM
  TGI: 228 nM
[12]
  GI50: 40.1 nM
  TGI: 48000 nM
[13]
  GI50: 88.7 nM
  TGI: 14800 nM
[14]
  GI50: < 17.9 nM
  TGI: 45400 nM
[15]
  GI50: 37.6 nM
  TGI: 12100 nM
[16]
  GI50: < 10 nM
  TGI: 28200 nM
[17]
  GI50: 89.8 nM
  TGI: > 100000 nM
[18]
  GI50: < 10 nM
  TGI: 3850 nM
[19]
  GI50: < 10 nM
  TGI: > 38000 nM
[20]
  GI50: 36.3 nM
  TGI: > 100000 nM
[21]
  GI50: 49.1 nM
  TGI: 18600 nM
[22]
  GI50: 15700 nM
  TGI: > 100000 nM
[23]
  GI50: < 10 nM
  TGI: > 41400 nM
[24]
  GI50: < 10 nM
  TGI: > 100000 nM
[25]
  GI50: < 10 nM
  TGI: > 100000 nM
[26]
  GI50: < 20.6 nM
  TGI: 832 nM
[27]
  GI50: 770 nM
  TGI: 38000 nM
[28]
  GI50: < 10 nM
  TGI: 18500 nM
[29]
  GI50: < 10 nM
  TGI: 13900 nM
[30]
  GI50: 30.4 nM
  TGI: > 100000 nM
[31]
  GI50: 31.1 nM
  TGI: > 74900 nM
[32]
  GI50: < 10 nM
  TGI: 11400 nM
[33]
  GI50: 16000 nM
  TGI: > 100000 nM
[34]
  GI50: < 10 nM
  TGI: 257 nM
[35]
  GI50: < 10 nM
  TGI: 5770 nM
[36]
  GI50: < 10 nM
  TGI: > 47200 nM
[37]
  GI50: < 14.7 nM
  TGI: 2060 nM
[38]
  GI50: 16.1 nM
  TGI: 25100 nM
[39]
  GI50: < 10.4 nM
  TGI: 24800 nM
[40]
  GI50: < 10 nM
  TGI: > 100000 nM
[41]
  GI50: 5190 nM
  TGI: > 100000 nM
[42]
  GI50: < 25.2 nM
[43]
  GI50: 46 nM
  TGI: 2870 nM
[44]
  GI50: 30500 nM
  TGI: > 100000 nM
[45]
  GI50: < 10 nM
  TGI: 20100 nM
[46]
  GI50: < 26.9 nM
  TGI: 1110 nM
[47]
  GI50: < 10.9 nM
  TGI: 1070 nM
[48]
  GI50: < 10 nM
  TGI: > 20900 nM
[49]
  GI50: 773 nM
  TGI: > 100000 nM
[50]
  GI50: 79.1 nM
  TGI: 34200 nM
[51]
  GI50: < 20.1 nM
  TGI: > 41600 nM
[52]
  GI50: 45 nM
  TGI: > 47100 nM
[53]
  GI50: 26.5 nM
  TGI: 19100 nM
[54]
  GI50: < 10 nM
  TGI: > 100000 nM
[55]
  GI50: 1320 nM
  TGI: > 100000 nM
